Results reported in patent US9850300B2, “Compositions and methods relating to inhibiting cancer cell growth and/or proliferation” (The Regents of the University of Michigan, priority 2013, dated 2017).
Entries after “also recorded” stand apart in the source; their conditions may differ.

B1: EGFL6^RGE: EGFL6 protein with an RGD-to-RGE mutation of the integrin binding motif (protein)
chain: NAASARHHGLLASARQPGVCHYGTKLACCYGWRRNSKGVCEATCEPGCKFGECVGPNKCRCFPGYTGKTCSQDVNECGMKPRPCQHRCVNTHGSYKCFCLSGHMLMPDATCVNSRTCAMINCQYSCEDTEEGPQCLCPSSGLRLAPNGRDCLDIDECASGKVICPYNRRCVNTFGSYYCKCHIGFELQYISGRYDCIDINECTMDSHTCSHHANCFNTQGSFKCKCKQGYKGNGLRCSAIPENSVKEVLRAPGTIKDRIKKLLAHKNSMKKKAKIKNVTPEPTRTPTPKVNLQPFNYEEIVSRGGNSHGGKKGNEEKMKEGLEDEKREEKALKNDIEERSLRGEVFFPKVNEAGEFGLILVQRKALTSKLEHKDLNISVDCSFNHGICDWKQDREDDFDWNPADRDNAIGFYMAVPALAGHKKDIGRLKLLLPDLQPQSNFCLLFDYRLAGDKVGKLRVFVKNSNNALAWEKTTSEDEKWKTGKIQLYQGTDATKSIIFEAERGKGKTGEIAVDGVLLVSGLCPDSLLSVDD

Tests used:
Assay type in all cases: cell-based
[1] = test system: ALDH+ CSCs in SKOV3 cells; assay: ALDH+ cell percentage and number (ALDEFLUOR FACS); details: Echistatin 100 nM pretreatment 24 hours or EGFL6 antibody 5 μg/ml, then EGFL6
Source text: It has been shown that aldehyde dehydrogenase enzymatic activity (ALDH) is an excellent marker of ovarian CSCs in SKOV3 cells and primary patient samples (see, e.g., Silva, I. A., et al. Cancer Res (2011); Landen, C. N., Jr., et al. Mol Cancer Ther 9, 3186-3199 (2010); Steg, A. D., et al. Clin Cancer Res 18, 869-881 (2012); Kryczek, I., et al. Int J Cancer 130, 29-39 (2012); Deng, S., et al. PLoS ONE 5, e10277 (2010)). The impact of EGFL6 treatment on the percentage of ALDH^+ CSCs in vitro was next assessed. […] However, given the increase in total cell numbers, the absolute ALDH^+ CSC number remained unchanged (FIG. 3Aiii). […] Human ovarian cancer ascites cells were also treated with EGFL6 in a tumor sphere assay. Once again, treatment with EGLF6 was associated with a reduction in ALDH^+ cell percentages in tumor spheres (FIG. 3B).
(§1) SKOV3, A2008, and A2780 were maintained in RPMI-1640, supplemented with 10% FBS with 1% Penicillin/Streptomycin, and cultured in humidified atmosphere of 5% CO2 at 37° C. For all in vitro cell culture experiments, isolated cells were allow to recover overnight following FACS, prior to treatment. Infantile Hemangioma Stem cells were maintained in EBM-2 medium with growth factor supplement cocktails in culture plates coated with fibronectin. For Echistatin and EGFL6 treatment, cells were pretreated with Echistatin (Sigma, 100 nM) for 24 hours prior to EGFL6 treatment. All transfections were performed using FuGene6 reagent (Promega) per company protocol.
FACS assay was performed as previously described (see, e.g., Silva, I. A., et al. Cancer Res (2011)). Briefly, SKOV3 cells or primary ovarian tumor/ascetics cells were stained for ALDH using ALDEFLUOR kit per company protocol (Stem Cell Technologies). DAPI staining was used to exclude non-viable cells. For FACS cell sorting, equal number of ALDH and ALDH^(−) cells were collected for subsequent experiments.
EGFL6 monoclonal antibody producing hybridoma cells were maintained in RPMI medium supplemented with 10% FBS. For antibody purification, the cells were cultured in reduced FBS (5%). […]

[2] = test system: phosphorylation of SHP2, ERK, FAK and SRC in SKOV3 cells; assay: Western blot of EGFL6 mediated signal activation; details: for p-SHP2 levels: treatment of ALDH+ SKOV3 cells
Description: Lastly, EGFL6 mediated signal activation was evaluated. Integrin signaling has been reported to induce the […] of FAK, SRC and SHP2 among others. […] Phosphorylation of all of these proteins could be blocked with Echistatin.
Cellular signaling changes associated with EGFL6 was next examined. […] EGFL6 treatment was associated with increased p-SHP2 levels specifically in ALDH^+ cells (FIG. 4Ei). […] SHP2 phosphorylation could be blocked with Echistatin (FIG. 4Eiii) or an EGFL6-blocking antibody. SHP2 phosphorylation was associated with increased p-ERK levels (4Ei-iii).
as §1
EGFL6 monoclonal antibody producing hybridoma cells were maintained in RPMI medium supplemented with 10% FBS. For antibody purification, the cells were cultured in reduced FBS (5%). Culture supernatant was collected and cell debris was removed by centrifugation. EGFL6 antibody was pulled down using Protein G Agarose heeds, Fast Flow (Millipore), washed and eluded with 50 mM glycine PH.2.7. Antibody solution was immediately neutralized to PH 7.2-7.4 with Tris (Ph 9.0, final concentration 25 mM). NaCl was added to final concentration of 150 mM. EGFL6 antibody was applied at 5 μg/ml for in vitro cell treatment and 50 μg/mouse for in vivo treatment.

SKOV3 cells = assay: EGFL6-mediated cell proliferation, RGE mutation or Echistatin pretreatment; details: for proliferative effect on cancer cells: RGD-to-RGE mutated EGFL6 vs EGFL6, SKOV3
Description: To determine if EGFL6 signaling on cancer cells is via integrin bind, an EGFL6 protein with an […] mutation (EGFL6^RGE) was generated. […] Similarly, pretreatment of SKOV3 cells with the integrin β1/β3 inhibitor Echistatin blocked both EGFL6-mediated cancer cell proliferation and the decrease in ALDH^+ percentage (FIG. 4B).
as §1

Molecule	blockade of EGFL6-mediated reduction in ALDH+ cell percentages [1]	blockade of EGFL6-induced phosphorylation of SHP2, FAK and SRC ([2]; Echistatin pretreatment)	blockade of EGFL6-mediated ERK phosphorylation ([2]; with EGFL6 treatment)	blockade of EGFL6-mediated SHP2 phosphorylation ([2]; with EGFL6 treatment)	blockade of EGFL6-mediated cancer cell proliferation (SKOV3 cells; Echistatin pretreatment, SKOV3)	p-SHP2 levels [2]	p-SHP2 levels ([2]; listed as EGFL6-RGE mutant)	p-ERK levels ([2]; treatment of ALDH+ and ALDH(−) cells)	proliferative effect on cancer cells (SKOV3 cells)	proliferative effect on cancer cells (SKOV3 cells; listed as EGFL6-RGE mutant)
Echistatin [reference compound]	inhibited the effect of EGFL6; also recorded: blocked; also recorded: inhibits	blocked	suppressed	blocked; also recorded: suppressed	blocked	–	–	–	–	–
B1	–	–	–	–	–	did not increase	does not increase	does not increase	eliminated the proliferative effects	suppressed
